Test results taken from ChEMBL document CHEMBL1201862, “PubChem BioAssay data set” (2004).
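Exposure lasted 48 hours, with cells grown in 96-well plates and compounds tested at five concentrations. Abbreviation: GI50, concentration required for 50% inhibition of growth.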 Activity calls are given as the source filed them. No stated cut-off is given here; in the data, active = GI50 up to about 1.1 µM and inactive = higher.

Tests used:
Experiment in all cases: NCI-60 cell line screen, 48 h
[1] = test system: U-251
[2] = test system: OVCAR-3
[3] = test system: UACC-62
[4] = test system: LOX IMVI
[5] = test system: HOP-62
[6] = test system: HCC 2998
[7] = test system: KM12
[8] = test system: OVCAR-5
[9] = test system: SNB-19
[10] = test system: Hs-578T
[11] = test system: A549
[12] = test system: SK-MEL-5
[13] = test system: PC-3
[14] = test system: CCRF-CEM
[15] = test system: SK-MEL-2
[16] = test system: K562
[17] = test system: HCT-15
[18] = test system: SF-295
[19] = test system: M14
[20] = test system: OVCAR-4

## COc1c(C(=O)/C(=N/Nc2cccc(Cl)c2)C(C)=O)c(O)c(OC)c2occc12
[1]
  GI50: > 100 µM (inactive)
[2]
  GI50: > 100 µM (inactive)
[3]
  GI50: > 100 µM (inactive)
[4]
  GI50: 56.4 µM (inactive)
[5]
  GI50: > 100 µM (inactive)
[6]
  GI50: 31.5 µM (inactive)
[7]
  GI50: > 100 µM (inactive)
[8]
  GI50: > 100 µM (inactive)
[9]
  GI50: > 100 µM (inactive)
[10]
  GI50: 70 µM (inactive)
[11]
  GI50: > 100 µM (inactive)
[12]
  GI50: > 100 µM (inactive)
[13]
  GI50: 53.5 µM (inactive)
[14]
  GI50: 88.1 µM (inactive)
[15]
  GI50: > 100 µM (inactive)
[16]
  GI50: > 100 µM (inactive)
[17]
  GI50: > 100 µM
[18]
  GI50: 58.1 µM (inactive)
[19]
  GI50: > 100 µM (inactive)

## O=C1CCc2ccc3c(c21)CC1(Cc2ccccc2C1)C3
[1]
  GI50: 8.05 µM (inactive)
[2]
  GI50: 4.01 µM (inactive)
[3]
  GI50: 7.1 µM (inactive)
[4]
  GI50: 2.59 µM (inactive)
[5]
  GI50: 6.37 µM (inactive)
[6]
  GI50: 14.4 µM (inactive)
[7]
  GI50: 7.52 µM (inactive)
[8]
  GI50: 11.3 µM (inactive)
[9]
  GI50: 23.1 µM (inactive)
[10]
  GI50: 25.8 µM (inactive)
[11]
  GI50: 7.78 µM (inactive)
[12]
  GI50: 3.38 µM (inactive)
[13]
  GI50: 8.73 µM (inactive)
[14]
  GI50: 10.6 µM (inactive)
[15]
  GI50: 14.2 µM (inactive)
[17]
  GI50: 4.67 µM
[18]
  GI50: 3.72 µM (inactive)
[20]
  GI50: 10.5 µM (inactive)
[19]
  GI50: 4.73 µM (inactive)

## N#Cc1c(-c2ccc(Cl)cc2)cc(-c2nc3ccccc3[nH]2)nc1N
[2]
  GI50: 12.5 µM (inactive)
[3]
  GI50: 7.66 µM (inactive)
[4]
  GI50: 10.2 µM (inactive)
[5]
  GI50: 14.4 µM (inactive)
[6]
  GI50: 4.02 µM (inactive)
[7]
  GI50: 10 µM (inactive)
[8]
  GI50: 19.5 µM (inactive)
[9]
  GI50: 12.1 µM (inactive)
[10]
  GI50: 16.5 µM (inactive)
[11]
  GI50: 5.92 µM (inactive)
[12]
  GI50: 6.67 µM (inactive)
[13]
  GI50: 11 µM (inactive)
[14]
  GI50: 5.57 µM (inactive)
[15]
  GI50: 12.6 µM (inactive)
[16]
  GI50: 6.71 µM (inactive)
[17]
  GI50: 10.9 µM
[18]
  GI50: 10.7 µM (inactive)
[20]
  GI50: 18.6 µM (inactive)
[19]
  GI50: 4.32 µM (inactive)
